Experimental data published in ChEMBL document CHEMBL1143452, “Synthesis and biological evaluation of 1-amino-1,1-bisphosphonates derived from fatty acids against Trypanosoma cruzi targeting farnesyl pyrophosphate synthase” (Bioorg Med Chem Lett, 2005).

Tests used:
Trypanosoma cruzi [1] = assay: Inhibitory concentration against growth of Trypanosoma cruzi amastigotes; format: functional, organism-based
Trypanosoma cruzi [2] = assay: Inhibitory concentration against growth of Trypanosoma cruzi epimastigotes; format: functional, organism-based

SMILES | IC50 (Trypanosoma cruzi [1]) [µM] | IC50 (Trypanosoma cruzi [2]) [µM]
CCCC(N)(P(=O)(O)O)P(=O)(O)O | > 85 | > 100
CCCCC(N)(P(=O)(O)O)P(=O)(O)O | > 85 | > 100
CCC(N)(P(=O)(O)O)P(=O)(O)O | > 85 | > 100
CCCCCC(N)(P(=O)(O)O)P(=O)(O)O | 77 | > 100
CC(N)(P(=O)(O)O)P(=O)(O)O | > 100 | > 100
CCCCCCC(N)(P(=O)(O)O)P(=O)(O)O | 72 | > 100
